Test results reported in patent US9512414B2, “Thermostable beta-glucosidase” (HONDA MOTOR CO., LTD., priority 2014, dated 2016).

Tested on: thermostable β-glucosidase AR19G-228-1 (GH family 1), SEQ ID NO: 2, from hot spring soil metagenome AR19, expressed in E. coli
Test: Kinetics of PNPG hydrolysis by AR19G-228-1 β-glucosidase
Assay type: biochemical
Conditions: 100° C., acetate buffer pH 5.5
From the text: The β-glucosidase activity using PNPG as a substrate of the enzyme protein (AR19G-228-1) encoded by the AR19G-228-1 gene was investigated. A solution prepared by dissolving PNPG (manufactured by Sigma-Aldrich Co. LLC.) in water and adjusting to a predetermined final concentration was used as the substrate solution. It should be noted that the PNPG substrate solutions used in the experiments described below all used the PNPG aqueous solution prepared by the above method. PNPG (manufactured by Sigma-Aldrich Co. LLC.) was used as the substrate for measuring the β-glucosidase activity. In the measurements, the purified enzyme obtained in section <7> above was diluted to a concentration of 0.0075 mg/mL with 0.05 M Tris-HCl buffer (pH 8.0) and used.
For the reaction at a temperature of 50 to 90° C., a Thermomixer (manufactured by the Eppendorf AG) was used, a sample tube with a volume of 1.5 mL was used as a reaction vessel, and the amount of reaction solution was set to 200 μL. The reaction solution was composed of 5 μL of diluted purified enzyme, 45 μL of purified water, 50 μL of 200 mM acetate buffer (pH 5.5), and 100 μL of 60 mM PNPG aqueous solution. […]
In all measurements, a mixed solution prepared by replacing the purified enzyme solution with 50 mM Tris-HCl buffer (pH 8.0) and then reacting the solution under the same conditions was used as a control. […] The amount of p-nitrophenol in the supernatant was determined by measuring the absorbance at 420 nm using a spectrophotometer, calculating the amount of p-nitrophenol in the supernatant using a calibration curve prepared with p-nitrophenol, and then determining the amount of p-nitrophenol produced by the enzymatic hydrolysis by the difference from the control. […] In addition, each measurement was performed for three independent experiments, and a mean value and a standard error were determined. […]

**Q.** Which Km (PNPG 0.5-100 mM) does the source give for `O=[N+]([O-])c1ccc(O[C@@H]2O[C@H](CO)[C@@H](O)[C@H](O)[C@H]2O)cc1` [PNPG, p-nitrophenyl-β-D-glucopyranoside] here?
**A.** 4.5 mM

**Q.** And the Vmax (PNPG 0.5-100 mM)?
**A.** 430.3 U/mg

**Q.** And the Kcat/Km (PNPG, calculated from Vmax and Km)?
**A.** 91500 M⁻¹ s⁻¹
